Each structure is given as a SMILES string.

One assay concerns the target T1, NDM-1 (Klebsiella pneumoniae, UniProt C7C422).
T1 construct: made in house
In words: In vitro inhibition assay (kinetic fluorescence-based activity assay), NDM-1. It is filed as biochemical. To be noted: Means and SD of at least two independent experiments. The protocol: (§1) Protein expression and purification. The expression of IMP-7, VIM-1, and NDM-1 was performed according to the protocol previously published by Klingler et al. (Klingler, F. M.; Wichelhaus, T. A.; Frank, D.; Cuesta-Bernal, J.; El-Delik, J.; Müller, H. F.; Sjuts, H.; Gottig, S.; Koenigs, A.; Pos, K. M.; et al. Approved Drugs Containing Thiols as Inhibitors of Metallo-β-Lactamases: Strategy to Combat Multidrug-Resistant Bacteria. J. Med. Chem. 2015, 58 (8), 3626-3630. https://doi.org/10.1021/jm501844d) with slight modifications.
(§2) In vitro inhibition assay. Activity assays for NDM-1, VIM-1, VIM-2 and IMP-7 were carried out, as described by Klingler et al. Final protein concentrations were 0.5 nM (NDM-1), 4.0 nM (VIM-1), and 0.1 nM (IMP-7) in a 50 mM HEPES buffer (pH 7.5, 0.01% Triton X-100) Substrate (Fluorocillin™ (Invitrogen, Darmstadt, Germany) was dissolved in assay buffer to a final concentration of 888 nM. Test compounds were dissolved and pre-diluted in DMSO (final concentration: 1%). In a black polystyrol 96-well plate (Corning) an amount of […] of the respective inhibitor solution at different concentrations was incubated with […] of respective protein containing buffer for 30 minutes at room temperature. […] of substrate solution was added. The readout of the emitted fluorescence was started immediately (45 s for 30 cycles) using a Tecan Infinite F200Pro (Tecan Group Ltd; excitation at 495 nm and emission at 525 nm). Blank controls were performed without enzyme. Positive controls were performed with enzyme but without inhibitor. The inhibitory activity of each test compound was measured in three independent experiments. For calculation of IC50 values, data obtained from measurements with eight different inhibitor concentrations were used. For the evaluation of the sigmoidal dose response equation (variable slope with four parameters) GraphPad Prism 5 (GraphPad Software, La Jolla, Calif., USA) was used.

The target of the next assay is IMP-7 (Pseudomonas aeruginosa, UniProt Q93AU3). Put plainly: In vitro inhibition assay (kinetic fluorescence-based activity assay), IMP-7. To be noted: Means and SD of at least two independent experiments. The assay is classed as biochemical. The protocol: as §1, §2
A further assay deals with T2, VIM-1 (Pseudomonas aeruginosa, UniProt A0A0F7KYQ8).
T2 construct: made in house
In words: In vitro inhibition assay (kinetic fluorescence-based activity assay), VIM-1. It is filed as biochemical. To be noted: Means and SD of at least two independent experiments. How it is done:
as §1, §2

Assay [1] has as its system different isolates from E. coli and P. aeruginosa. In words: MIC assay, intrinsic antibacterial activity. It is filed as cell-based. To be noted: compound alone.
A further assay deals with E. coli NDM-1 (T2359). Put plainly: Checkerboard assay with imipenem, E. coli NDM-1 (T2359). To be noted: Table 6. The assay is classed as cell-based. How it is done: (§3) Fractional inhibitory concentration index (FICI). The checkerboard assay was performed to test for synergy in vitro. […] FICIs≤0.5 were defined as synergistic; FICIs from >0.5 to […] were defined as additive; FICIs from 1 to ≤4 were defined as indifferent and FICIs>4 were defined as antagonistic (Doern, C. D. When Does 2 plus 2 Equal 5? A Review of Antimicrobial Synergy Testing. J. Clin. Microbial. 2014, 52 (12), 4124-4128. https://doi.org/10.1128/JCM.01121-14).

The test system of another assay is E. coli VIM-1 (T2544). In words: Checkerboard assay with imipenem, E. coli VIM-1 (T2544). The assay is classed as cell-based. How it is done: as §3
A further assay has as its system E. coli IMP-1 (T2360). In words: Checkerboard assay with imipenem, E. coli IMP-1 (T2360). The assay is classed as cell-based. The protocol:
as §3

T1 sequence (C7C422 29-270, looked up, species assumed): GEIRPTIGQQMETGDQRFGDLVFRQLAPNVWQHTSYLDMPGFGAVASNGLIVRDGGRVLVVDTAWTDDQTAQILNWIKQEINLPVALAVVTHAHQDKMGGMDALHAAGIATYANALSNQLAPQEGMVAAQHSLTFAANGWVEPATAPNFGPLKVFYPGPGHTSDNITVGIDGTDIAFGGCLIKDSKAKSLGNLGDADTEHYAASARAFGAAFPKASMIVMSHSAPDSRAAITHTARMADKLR
Sequence of IMP-7 (Q93AU3 entry or part of it): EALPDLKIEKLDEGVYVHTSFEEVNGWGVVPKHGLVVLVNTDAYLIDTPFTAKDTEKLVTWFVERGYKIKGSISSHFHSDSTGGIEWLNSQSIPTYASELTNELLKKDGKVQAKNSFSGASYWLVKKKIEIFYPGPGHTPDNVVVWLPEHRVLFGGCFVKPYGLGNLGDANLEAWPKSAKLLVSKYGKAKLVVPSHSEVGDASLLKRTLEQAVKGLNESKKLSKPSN

As for `O=C(CCS)Nc1ccc(C(=O)O)cc1` [HIPS5695], the IC50 came out at 1 ± 0.4 µM against NDM-1 and 0.6 µM at VIM-1. At IMP-7, the “IC50 (μM) IMP-7” value is reported as “n.i”. Further, the “intrinsic antibacterial activity (MIC)” value in assay [1] is recorded as “no intrinsic antibacterial activity”. Also, the “Imipenem MIC” value in the assay with E. coli NDM-1 (T2359) (+2 mg/L compound) stood at 128 µg/mL; in the assay with E. coli NDM-1 (T2359) (+4 mg/L compound) it was 128 µg/mL; in the assay with E. coli NDM-1 (T2359) (+8 mg/L compound) it was 128 µg/mL; with E. coli NDM-1 (T2359) (+16 mg/L compound), 128 µg/mL; with E. coli NDM-1 (T2359) (+32 mg/L compound), 128 µg/mL; in the assay with E. coli NDM-1 (T2359) (+64 mg/L compound) it was 32 µg/mL. Besides, the “Imipenem MIC” value came to 8 µg/mL in the assay with E. coli NDM-1 (T2359) (+128 mg/L compound); 16 µg/mL in the assay on E. coli VIM-1 (T2544) (+2 mg/L compound); 16 µg/mL in the assay with E. coli VIM-1 (T2544) (+4 mg/L compound); 16 µg/mL in the assay with E. coli VIM-1 (T2544) (+8 mg/L compound); 16 µg/mL in the assay on E. coli VIM-1 (T2544) (+16 mg/L compound); 4 µg/mL with E. coli VIM-1 (T2544) (+32 mg/L compound). The “Imipenem MIC” value with E. coli VIM-1 (T2544) (+64 mg/L compound) was determined as 2 µg/mL; with E. coli VIM-1 (T2544) (+128 mg/L compound), 1 µg/mL; with E. coli IMP-1 (T2360) (+2 mg/L compound), 2 µg/mL; in the assay with E. coli IMP-1 (T2360) (+4 mg/L compound) it was 2 µg/mL; in the assay with E. coli IMP-1 (T2360) (+8 mg/L compound), 2 µg/mL; with E. coli IMP-1 (T2360) (+16 mg/L compound), 1 µg/mL. The “Imipenem MIC” value with E. coli IMP-1 (T2360) (+32 mg/L compound) worked out at 1 µg/mL; in the assay on E. coli IMP-1 (T2360) (+64 mg/L compound) it was 0.5 µg/mL; in the assay with E. coli IMP-1 (T2360) (+128 mg/L compound), 0.5 µg/mL.
Consider `CS(=O)(=O)Nc1ccccc1NC(=O)CCS` [HIPS5654], for which the IC50 at NDM-1 worked out at 7 ± 0.3 µM; at VIM-1, 1.9 ± 0.2 µM. In addition, the “IC50 (μM) IMP-7” value against IMP-7 is “n.i”.
Turning to `CC(=O)c1ccc(NC(=O)CCS)cc1` [HIPS5188], the IC50 came to 1.5 ± 0.3 µM against NDM-1, 5.5 ± 0.1 µM against IMP-7 and 0.4 ± 0.1 µM on VIM-1.
For the compound `CN(C)S(=O)(=O)c1ccc(NC(=O)CCS)cc1` [HIPS5665], the half-inhibitory concentration (IC50) was found to be 2.8 ± 0.1 µM against NDM-1, 2.1 ± 0.2 µM on IMP-7 and 0.8 µM on VIM-1.
As to `CS(=O)(=O)Nc1cccc(NC(=O)CCS)c1` [HIPS5585], the 50% inhibitory concentration (IC50) came to 2.2 ± 0.3 µM at NDM-1, 1.3 µM against IMP-7 and 1.3 µM on VIM-1.
For `CCN(CC)Cc1cccc(NC(=O)CCS)c1` [HIPS5664], the results for the IC50 against NDM-1, against IMP-7 and against VIM-1 were 6.5 ± 0.4 µM, 5.5 ± 0.7 µM and 0.8 ± 0.1 µM, respectively.
On the same counts, the results for `O=C(CCS)Nc1cccc(O)c1` [HIPS1687] are 2.7 ± 0.5 µM, 1.4 ± 0.2 µM and 0.1 µM.
The corresponding values for `O=C(CCS)Nc1cccc([N+](=O)[O-])c1` [HIPS5662] are 2.5 ± 0.2 µM, 2.6 ± 0.1 µM and 0.1 µM.
The corresponding values for `O=C(CCS)Nc1ccc(S(=O)(=O)N2CCOCC2)cc1` [HIPS5659] are 2.5 ± 0.2 µM, 7.1 ± 1.4 µM and 1.7 ± 0.3 µM.

Values taken from patent US20230146507A1, “N-PHENYL-3-MERCAPTOPROPANAMIDE DERIVATIVES AS METALLO-BETA-LACTAMASE INHIBITORS FOR THE TREATMENT OF BACTERIAL INFECTIONS” (Helmholtz-Zentrum Für Infektionsforschung GmbH, priority 2020, published 2023).
